Here are results for eleven compounds from ChEMBL document CHEMBL5528065, “Structure-Activity Relationship of a Pyrrole Based Series of PfPKG Inhibitors as Anti-Malarials” (J Med Chem, 2024).

Experiment [1] concerns Plasmodium falciparum. Nature of the experiment: Antimalarial activity against Plasmodium falciparum expressing PKG T618Q mutant infected in human erythrocytes assessed as reduction in parasitemia incubated for 72 hrs by SYBR green I and Mitotracker deep red dye based flow cytometric analysis. The format is functional, organism-based. The conditions noted are these: Plasmodium falciparum, 72 h.

In experiment [2] the test system is Plasmodium falciparum. Nature of the experiment: Antimalarial activity against drug-sensitive Plasmodium falciparum 3D7 infected in human erythrocytes assessed as reduction in parasitemia incubated for 72 hrs by SYBR green I and Mitotracker deep red dye based flow cytometric analysis. The conditions noted are these: Plasmodium falciparum, 3D7, 72 h. In kind it is functional, organism-based. In general terms: A flow cytometer gives signals particle by particle.

The nature of experiment [3]: Inhibition of recombinant Plasmodium falciparum PKG using FAM-PKA peptide as fluorescent substrate preincubated for 15 mins followed by substrate addition measured after 1 hr by fluorescence polarization based IMAP assay. On the technique in general: Polarisation of emitted light reports the rotation of a fluorescent probe.
A further experiment is filed under the species Homo sapiens. Put plainly: Inhibition of human PKG using FAM-IP3R peptide as fluorescent substrate at 10 uM preincubated for 15 mins followed by substrate addition measured after 1 hr by fluorescence polarization based IMAP assay relative to control. The conditions noted are these: time 75.0 min.
Another experiment relates to Plasmodium berghei. Nature of the experiment: Antimalarial activity against Plasmodium berghei sporozoites expressing Luciferase infected in human HepG2 cells assessed as reduction in parasite growth incubated for 48 hrs by ONE-Glo luciferase assay. In kind it is functional, organism-based.
Where [4] appears, read: Plasmodium berghei, HepG2, 48 h.

Turning to `CN1CCC(C)(c2cc(-c3ccncc3)c(-c3ccc(F)cc3)[nH]2)CC1.Cl.Cl`, the EC50 in the experiment on Plasmodium falciparum [1] stood at 1070 nM; in the experiment with Plasmodium falciparum [2], 550 nM; in the experiment with Plasmodium berghei (setting [4]), 500 nM. Also, in experiment [3], the half-maximal inhibitory concentration (IC50) turned out to be 50 nM. The negative-log IC50 (pIC50) in experiment [3] came out at 7.09. Moreover, in the experiment filed under Homo sapiens, the inhibition was found to be 35%.

For `CN1CCC(c2cc(-c3ccncc3)c(-c3ccc(C(F)(F)F)cc3)[nH]2)CC1.Cl.Cl`, the half-maximal effective concentration (EC50) in the experiment with Plasmodium falciparum [1] was determined as 800 nM; in the experiment on Plasmodium falciparum [2], 530 nM; in the experiment on Plasmodium berghei (setting [4]), 2600 nM. For the same compound, the IC50 in experiment [3] was 329 nM. Further, the pIC50 in experiment [3] amounted to 6.94. In the experiment filed under Homo sapiens, the inhibition was -2%.

Turning to `C[C@@H]1C[C@H](c2cc(-c3ccncc3)c(-c3ccc(F)cc3)[nH]2)CCN1C.Cl.Cl` (racemic), the values for the half-maximal effective concentration (EC50) in the experiment on Plasmodium falciparum [1], in the experiment with Plasmodium falciparum [2] and in the experiment with Plasmodium berghei (setting [4]) were 900 nM, 360 nM and 670 nM, respectively. Besides, in experiment [3], the IC50 is 41 nM. In experiment [3], the pIC50 amounted to 6.97. Besides, in the experiment filed under Homo sapiens, the inhibition turned out to be 10%.

In the case of `CN1CCC(c2cc(-c3ccncc3)c(-c3ccc(F)cc3)n2C)CC1.Cl.Cl`, the EC50 in the experiment on Plasmodium falciparum [1] worked out at 690 nM; in the experiment on Plasmodium falciparum [2], 710 nM; with Plasmodium berghei (setting [4]) it was 2300 nM. In addition, in experiment [3], the half-maximal inhibitory concentration (IC50) is 112 nM. Also, the negative-log IC50 (pIC50) in experiment [3] was 6.95. For the same compound, the inhibition in the experiment listed under Homo sapiens was 4%.

As to `CN1CCC(c2cc(-c3ccncc3F)c(-c3ccc(F)cc3)[nH]2)CC1.Cl.Cl`, the concentration giving a half-maximal response (EC50) turned out to be 5220 nM with Plasmodium falciparum [1], 300 nM in the experiment on Plasmodium falciparum [2] and 780 nM with Plasmodium berghei (setting [4]). The IC50 in experiment [3] came to 49 nM. The pIC50 in experiment [3] is recorded as 7.72. The inhibition in the experiment filed under Homo sapiens was determined as 18%.

As to `CN1CCC(c2cc(-c3ccncc3CO)c(-c3ccc(F)cc3)[nH]2)CC1.Cl.Cl`, the values for the half-maximal effective concentration (EC50) with Plasmodium falciparum [1], in the experiment with Plasmodium falciparum [2] and in the experiment with Plasmodium berghei (setting [4]) were 6230 nM, 481 nM and 2400 nM, respectively. The half-inhibitory concentration (IC50) in experiment [3] is 1520 nM. The pIC50 in experiment [3] is reported as 5.82. Further, the inhibition in the experiment filed under Homo sapiens came out at 1%.

On to `C[C@@H]1CN(C)CC[C@H]1c1cc(-c2ccncc2)c(-c2ccc(F)cc2)[nH]1.Cl.Cl` (racemic), for which the half-maximal effective concentration (EC50) in the experiment with Plasmodium falciparum [1] was 800 nM; in the experiment on Plasmodium falciparum [2], 30 nM; in the experiment on Plasmodium berghei it was 280 nM. Besides, in experiment [3], the IC50 is 27 nM. Further, in experiment [3], the negative logarithm of the IC50 (pIC50) came out at 7.64. Further, the inhibition in the experiment filed under Homo sapiens is 9%.

For the compound `Cc1cnccc1-c1cc(C2CCN(C)CC2)[nH]c1-c1ccc(F)cc1.Cl.Cl`, the figures for the half-maximal effective concentration (EC50) with Plasmodium falciparum [1], in the experiment on Plasmodium falciparum [2] and in the experiment on Plasmodium berghei (setting [4]) were 1130 nM, 1360 nM and 590 nM, respectively. Moreover, in experiment [3], the 50% inhibitory concentration (IC50) turned out to be 208 nM. Moreover, in experiment [3], the pIC50 is given as 6.68. Also, the inhibition in the experiment filed under Homo sapiens turned out to be 12%.

For `CC(O)c1cc(-c2cc(C3CCN(C)CC3)[nH]c2-c2ccc(F)cc2)ccn1.Cl.Cl` (stereo unspecified), the concentration giving a half-maximal response (EC50) is 8320 nM in the experiment on Plasmodium falciparum [1], 3350 nM with Plasmodium falciparum [2] and more than 10000 nM with Plasmodium berghei (setting [4]). For the same compound, the IC50 in experiment [3] worked out at 10500 nM. Besides, the negative-log IC50 (pIC50) in experiment [3] was determined as 4.98. The inhibition in the experiment listed under Homo sapiens was found to be 0.5%.

`CN1CCC(c2cc(-c3ccncc3)c(-c3ccc(F)cc3)[nH]2)CC1.Cl`: the figures for the EC50 with Plasmodium falciparum [1], in the experiment with Plasmodium falciparum [2] and in the experiment with Plasmodium berghei (setting [4]) were 1020 nM, 230 nM and 270 nM, respectively. In addition, the IC50 in experiment [3] was determined as 31 nM. Further, in experiment [3], the negative logarithm of the IC50 (pIC50) is 7.61. Moreover, the inhibition in the experiment filed under Homo sapiens turned out to be 6%.

On to `CN1CCC(c2cc(-c3ccncc3Cl)c(-c3ccc(F)cc3)[nH]2)CC1.Cl.Cl`, for which the concentration for a half-maximal effect (EC50) in the experiment on Plasmodium falciparum [1] was found to be 3950 nM; with Plasmodium falciparum [2] it was 460 nM; in the experiment on Plasmodium berghei (setting [4]) it was 1440 nM. Besides, the half-maximal inhibitory concentration (IC50) in experiment [3] amounted to 152 nM. In experiment [3], the pIC50 was determined as 7.47. Besides, the inhibition in the experiment filed under Homo sapiens was 12%.

As a reminder, the EC50 is the midpoint of the concentration-response curve. As usually defined, the IC50 is the concentration that inhibits the measured activity by half. As usually defined, the pIC50 is the IC50 on a negative log10 scale, so that one unit is a factor of ten. By inhibition is commonly meant the relative decrease from the control value, in per cent.
